Measurements: patent publication US20120046306A1, “Substituted Heteroaryl Spiropyrrolidine MDM2 Antagonists” (priority 2010, published 2012)

target: interaction between p53 and MDM2 proteins (Homo sapiens, UniProt Q00987); test: HTRF assay of inhibition of p53-MDM2 interaction; format: binding; conditions: GST-MDM2 and biotinylated p53 peptide, bsa: 0.02%
Procedure: The ability of the compounds to inhibit the interaction between p53 and MDM2 proteins was measured by an HTRF (homogeneous time-resolved fluorescence) assay in which recombinant GST-tagged MDM2 binds to a peptide that resembles the MDM2-interacting region of p53. Binding of GST-MDM2 protein and p53-peptide (biotinylated on its N-terminal end) is registered by the FRET (fluorescence resonance energy transfer) between Europium (Eu)-labeled anti-GST antibody and streptavidin-conjugated Allophycocyanin (APC).
Add 20 uL streptavidin-APC and Eu-anti-GST antibody mixture (6 nM Eu-anti-GST and 60 nM streptavidin-APC working solution) in TBS buffer with 0.2% BSA, shake at room temperature for 30 minutes and read using a TRF-capable plate reader at
If not specified, the reagents were purchased from Sigma Chemical Co.

Chain of interaction between p53 and MDM2 proteins (Q00987 whole entry): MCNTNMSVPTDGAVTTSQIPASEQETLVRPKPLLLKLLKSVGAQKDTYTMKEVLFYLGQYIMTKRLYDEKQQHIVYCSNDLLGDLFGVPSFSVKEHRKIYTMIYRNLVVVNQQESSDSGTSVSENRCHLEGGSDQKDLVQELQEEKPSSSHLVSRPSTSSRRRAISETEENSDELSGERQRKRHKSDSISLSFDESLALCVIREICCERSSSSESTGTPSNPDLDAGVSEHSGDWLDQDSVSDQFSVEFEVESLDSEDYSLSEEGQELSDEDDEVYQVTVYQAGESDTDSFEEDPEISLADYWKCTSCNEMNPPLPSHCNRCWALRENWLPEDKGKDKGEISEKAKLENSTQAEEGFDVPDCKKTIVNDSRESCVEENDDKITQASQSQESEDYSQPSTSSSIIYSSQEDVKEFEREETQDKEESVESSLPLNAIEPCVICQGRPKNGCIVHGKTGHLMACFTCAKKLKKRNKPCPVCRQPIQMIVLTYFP

IC50 [nM] | SMILES
19.5 | COC(=O)c1ccc(NC(=O)[C@@H]2N[C@@H](CC(C)(C)C)[C@@]3(C(=O)Nc4cc(F)cnc43)[C@H]2c2cccc(Cl)c2F)c(OC)c1 (racemic) [Example 83, methyl rac-4-((2S,3S,4S,5R)-4-(3-chloro-2-fluorophenyl)-6′-fluoro-2-neopentyl-2′-oxo-1′,2′-dihydrospiro[pyrrolidine-3,3′-pyrrolo[3,2-b]pyridine]-5-ylcarboxamido)-3-methoxybenzoate]
18.7 | COc1cc(C(N)=O)ccc1NC(=O)[C@@H]1N[C@@H](CC(C)(C)C)[C@@]2(C(=O)Nc3cc(F)cnc32)[C@H]1c1cccc(Cl)c1F (racemic) [Example 86, rac-(2S,3S,4S,5R)-N-(4-carbamoyl-2-methoxyphenyl)-4-(3-chloro-2-fluorophenyl)-6′-fluoro-2-neopentyl-2′-oxo-1′,2′-dihydrospiro[pyrrolidine-3,3′-pyrrolo[3,2b]pyridine]-5-carboxamide]
11.7 | COc1cc(OCCO)ccc1NC(=O)[C@@H]1N[C@@H](CC(C)(C)C)[C@@]2(C(=O)Nc3nc(Cl)ncc32)[C@H]1c1cccc(Cl)c1F (racemic) [Example 89, rac-(2S,3R,4S,5R)-2′-chloro-4-(3-chloro-2-fluorophenyl)-N-[4-(2-hydroxyethoxy)-2-methoxyphenyl]-2-neopentyl-6′-oxo-6′,7′-dihydrospiro[pyrrolidine-3,5′-pyrrolo[2,3-d]pyrimidine]-5-carboxamide]
10.7 | COC(=O)c1ccc(NC(=O)[C@@H]2N[C@@H](CC(C)(C)C)[C@]3(C(=O)Nc4nc(Cl)ncc43)[C@H]2c2cccc(Cl)c2F)c(OC)c1 (racemic) [Example 91, methyl rac-4-{(2S,3S,4S,5R)-2′-chloro-4-(3-chloro-2-fluorophenyl)-2-neopentyl-6′-oxo-6′,7′-dihydrospiro[pyrrolidine-3,5′-pyrrolo[2,3-d]pyrimidine]-5-ylcarboxamido}-3-methoxybenzoate]
22.7 | COC(=O)c1ccc(NC(=O)[C@@H]2N[C@@H](CC(C)(C)C)[C@@]3(C(=O)Nc4cc(Cl)sc43)[C@H]2c2cccc(Cl)c2F)c(OC)c1 (racemic) [Example 96, methyl rac-4-((2S,3R,4R,5R)-2′-chloro-4-(3-chloro-2-fluorophenyl)-2-neopentyl-5′-oxo-4′,5′-dihydrospiro[pyrrolidine-3,6′-thieno[3,2-b]pyrrole]-5-ylcarboxamido)-3-methoxybenzoate]
13.6 | COC(=O)c1ccc(NC(=O)[C@@H]2N[C@@H](CC(C)(C)C)[C@@]3(C(=O)Nc4cc(OC)ncc43)[C@H]2c2cccc(Cl)c2F)c(OC)c1 (racemic) [Example 110, methyl rac-4-((2S,3R,4S,5R)-4-(3-chloro-2-fluorophenyl)-6′-methoxy-2-neopentyl-2′-oxo-1′,2′-dihydrospiro[pyrrolidine-3,3′-pyrrolo[3,2-c]pyridine]-5-ylcarboxamido)-3-methoxybenzoate]
7 | COc1cc2c(cn1)[C@@]1(C(=O)N2)[C@H](CC(C)(C)C)N[C@@H](C(=O)Nc2ccc(C(=O)O)cc2OC)[C@@H]1c1cccc(Cl)c1F (racemic) [Example 111, rac-4-((2S,3R,4S,5R)-4-(3-chloro-2-fluorophenyl)-6′-methoxy-2-neopentyl-2′-oxo-1′,2′-dihydrospiro[pyrrolidine-3,3′-pyrrolo[3,2-c]pyridine]-5-ylcarboxamido)-3-methoxybenzoic acid]
> 10000 | COC(=O)c1ccc(NC(=O)[C@@H]2N[C@@H](CC(C)(C)C)[C@@]3(C(=O)Nc4cc(O)ncc43)[C@H]2c2cccc(Cl)c2F)c(OC)c1 (racemic) [Example 113, methyl rac-4-((2S,3R,4S,5R)-4-(3-chloro-2-fluorophenyl)-6′-hydroxy-2-neopentyl-2′-oxo-1′,2′-dihydrospiro[pyrrolidine-3,3′-pyrrolo[3,2-c]pyridine]-5-ylcarboxamido)-3-methoxybenzoate]
> 10000 | COc1cc(C(=O)O)ccc1NC(=O)[C@@H]1N[C@@H](CC(C)(C)C)[C@@]2(C(=O)Nc3cc(O)ncc32)[C@H]1c1cccc(Cl)c1F (racemic) [Example 114, rac-4-((2S,3R,4S,5R)-4-(3-chloro-2-fluorophenyl)-6′-hydroxy-2-neopentyl-2′-oxo-1′,2′-dihydrospiro[pyrrolidine-3,3′-pyrrolo[3,2-c]pyridine]-5-ylcarboxamido)-3-methoxybenzoic acid]
127 | COc1cc2c(cn1)[C@@]1(C(=O)N2)[C@H](CC(C)(C)C)N[C@@H](C(=O)Nc2ccc(C(N)=O)cc2OC)[C@@H]1c1cccc(Cl)c1F (racemic) [Example 115, rac-(2S,3R,4S,5R)-N-(4-carbamoyl-2-methoxyphenyl)-4-(3-chloro-2-fluorophenyl)-6′-methoxy-2-neopentyl-2′-oxo-1′,2′-dihydrospiro[pyrrolidine-3,3′-pyrrolo[3,2-c]pyridine]-5-carboxamide]
12 | COc1cc(OCCOC(C)=O)ccc1NC(=O)[C@@H]1N[C@@H](CC(C)(C)C)[C@@]2(C(=O)Nc3cc(Cl)ncc32)[C@H]1c1cccc(Cl)c1F (racemic) [Example 116, rac-2-(4-((2S,3R,4S,5R)-6′-chloro-4-(3-chloro-2-fluorophenyl)-2-neopentyl-2′-oxo-1′,2′-dihydrospiro[pyrrolidine-3,3′-pyrrolo[3,2-c]pyridine]-5-ylcarboxamido)-3-methoxyphenoxy)ethyl acetate]
14 | COc1cc(OCCO)ccc1NC(=O)[C@@H]1N[C@@H](CC(C)(C)C)[C@@]2(C(=O)Nc3cc(Cl)ncc32)[C@H]1c1cccc(Cl)c1F (racemic) [Example 117, rac-(2S,3R,4S,5R)-6′-chloro-4-(3-chloro-2-fluorophenyl)-N-(4-(2-hydroxyethoxy)-2-methoxyphenyl)-2-neopentyl-2′-oxo-1′,2′-dihydrospiro[pyrrolidine-3,3′-pyrrolo[3,2-c]pyridine]-5-carboxamide]
11.6 | COC(=O)c1ccc(NC(=O)[C@@H]2N[C@@H](CC(C)(C)C)[C@@]3(C(=O)Nc4cc(C)ncc43)[C@H]2c2cccc(Cl)c2F)c(OC)c1 (racemic) [Example 119, methyl rac-4-((2S,3R,4S,5R)-4-(3-chloro-2-fluorophenyl)-6′-methyl-2-neopentyl-2′-oxo-1′,2′-dihydrospiro[pyrrolidine-3,3′-pyrrolo[3,2-c]pyridine]-5-ylcarboxamido)-3-methoxybenzoate]
12 | COc1cc(C(=O)O)ccc1NC(=O)[C@@H]1N[C@@H](CC(C)(C)C)[C@@]2(C(=O)Nc3cc(C)ncc32)[C@H]1c1cccc(Cl)c1F (racemic) [Example 120, rac-4-((2S,3R,4S,5R)-4-(3-chloro-2-fluorophenyl)-6′-methyl-2-neopentyl-2′-oxo-1′,2′-dihydrospiro[pyrrolidine-3,3′-pyrrolo[3,2-c]pyridine]-5-ylcarboxamido)-3-methoxybenzoic acid]
11.8 | COc1cc(C(N)=O)ccc1NC(=O)[C@@H]1N[C@@H](CC(C)(C)C)[C@@]2(C(=O)Nc3cc(C)ncc32)[C@H]1c1cccc(Cl)c1F (racemic) [Example 121, rac-(2S,3R,4S,5R)-N-(4-carbamoyl-2-methoxyphenyl)-4-(3-chloro-2-fluorophenyl)-6′-methyl-2-neopentyl-2′-oxo-1′,2′-dihydrospiro[pyrrolidine-3,3′-pyrrolo[3,2-c]pyridine]-5-carboxamide]
6250 | COC(=O)c1ccc(NC(=O)[C@@H]2N[C@@H](CC(C)(C)C)[C@@]3(C(=O)Nc4c(Cl)ccnc43)[C@H]2c2cccc(Cl)c2F)c(OC)c1 (racemic) [Example 123, methyl rac-4-((2S,3S,4S,5R)-7′-chloro-4-(3-chloro-2-fluorophenyl)-2-neopentyl-2′-oxo-1′,2′-dihydrospiro[pyrrolidine-3,3′-pyrrolo[3,2-b]pyridine]-5-ylcarboxamido)-3-methoxybenzoate]
1010 | COc1cc(C(=O)O)ccc1NC(=O)[C@@H]1N[C@@H](CC(C)(C)C)[C@@]2(C(=O)Nc3c(Cl)ccnc32)[C@H]1c1cccc(Cl)c1F (racemic) [Example 124, rac-4-((2S,3S,4S,5R)-7′-chloro-4-(3-chloro-2-fluorophenyl)-2-neopentyl-2′-oxo-1′,2′-dihydrospiro[pyrrolidine-3,3′-pyrrolo[3,2-b]pyridine]-5-ylcarboxamido)-3-methoxybenzoic acid]
6.4 | COc1cc(OCCO)ccc1NC(=O)[C@@H]1N[C@@H](CC(C)(C)C)[C@@]2(C(=O)Nc3cc(Cl)cnc32)[C@H]1c1cccc(Cl)c1F [Example 75, (2S,3S,4S,5R)-6′-chloro-4-(3-chloro-2-fluorophenyl)-N-(4-(2-hydroxyethoxy)-2-methoxyphenyl)-2-neopentyl-2′-oxo-1′,2′-dihydrospiro[pyrrolidine-3,3′-pyrrolo[3,2-b]pyridine]-5-carboxamide]
